From patent US20120016019A1, “PHARMACEUTICAL COMPOSITION FOR TREATING OR PREVENTING CANCER” (priority 2010, published 2012)
Several values for one entry are separate records, joined by “and”; a condition that tells them apart may be missing. Identical values can stand only once. Like-named read-outs stand apart in the source and are kept apart here.

Assays:
HCC 1419 = assay: XTT cell viability assay, HCC 1419; conditions: for The absorbance, Mean value / The absorbance / The absorbance, group - Blank: XTT 500 nm; for The absorbance: single wells
Procedure: Cancer cell lines HCC 1419, MCF-7, MDA-MB-468, SKBR3, PC3, HT1299, Saos-2, C-6, AsPc, MDA-MB-231, RKO, HeLa and TT, and normal cell lines HME 50 HT, BJ and CCD-1074sk were tested for changes in metabolism (XTT assay) and cell death (cell counts).
Cells were plated into 48-well Corning CellBind™ plates at densities of 20,000 cells for normal cells and 10,000˜20,000 cells for cancer cells. 24 to 48 h after plating, cells were treated with the composition according to the invention at concentrations of 4.5e-2M. The first time point treated with the composition of the invention is 0 h. At 3 days after the first treatment with the composition of the invention, medium was changed and the composition of the invention at the same concentrations were added to the cultured cells.
The XTT assay is an accepted analysis technique for viability and cytotoxicity of anticancer drugs or other pharmaceutical compositions. Cells were seeded in a 96-well tissue culture plate at a density of 10,000 cells for normal cells and 5,000 cells for cancer cells. After incubation period, the formazan dye formed was quantitated using an ELISA reader. The optimal wavelength used in experiments was 500 nm, and it was measured at 0 h, 12 h, 24 h, 48 h, 4 d and 7 d, respectively. The obtained values were generated using the software SoftMax Pro 4.8.
The cell viability was calculated according to the manufacturer's instructions as follows (the term “blank” means XTT in medium only):
Cellular cytotoxicity was calculated according to the manufacturer's instructions as follows: […]

Saos-2 = assay: Cell counts, Saos-2; assay type: cell-based
Procedure: (§4) Cells were harvested using Trypsin-EDTA at the designated time points. […] Two 48-well plates were used per cell line, and they were measured at 0 h, 12 h, 24 h, 48 h, 4 d and 7 d, respectively.
(§5) In the 1st plate, cells were treated with the composition according to the invention and medium was changed at 0 h and 3 d. […] As a result, LC-50 curves were generated in the 1st week.
(§6) At 0 h of the 2nd week, medium was exchanged with untreated medium for the remainder of the experiment. […] As a result, Recovery curves were generated in the 2nd week.

AsPc = assay: Cell counts, AsPc; assay type: cell-based
Procedure: as §4, §5, §6

MDA-MB-231 = assay: Cell counts, MDA-MB-231; assay type: cell-based
Procedure: (§1) As a result, LC-50 curves were generated in the 1st week.
(§2) In the 2nd plate, 7 d of the 1st week (LC-50) is the same as 0 h of the 2nd week (recovery).
(§3) At 0 h of the 2nd week, medium was exchanged with untreated medium for the remainder of the experiment. The untreated controls were not measured in the 2nd week (recovery) due to overconfluence by the end of the 1st week. As a result, Recovery curves were generated in the 2nd week.

BJ = assay type: cell-based; conditions: for cell counts, Mean value / cell counts: BJ; for cell counts: single count
Procedure: as §1, §2, §3
(15) BJ—Normal Fibroblasts BJ cells were derived from normal foreskin of a newborn, and have a long lifespan in comparison with other normal human fibroblast cells. Although they have the capacity to proliferate to a maximum of 72 population doublings before the onset of senescence, they are telomerase negative.

[1] = HCC 1419, 1st week (LC50), 24 h
[2] = HCC 1419, 1st week (LC50), 48 h
[3] = HCC 1419, 2nd week (recovery), 0 h
[4] = HCC 1419, 2nd week (recovery), 48 h
[5] = HCC 1419, 2nd week (recovery), 4 d

Structure (SMILES): CC(=O)O[C@H]1C(=O)[C@@]2(C)[C@H]([C@H](OC(=O)c3ccccc3)[C@]3(O)C[C@H](OC(=O)[C@H](O)[C@@H](NC(=O)c4ccccc4)c4ccccc4)C(C)=C1C3(C)C)[C@]1(OC(C)=O)CO[C@@H]1C[C@@H]2O [Taxol]
- The absorbance, Mean value (HCC 1419; HCC 1419, 1st week (LC50), 0 h): 2.5924
- The absorbance (HCC 1419; HCC 1419, 1st week (LC50), 0 h): 2.5534 and 2.6558 and 2.5679
- The absorbance, group - Blank (HCC 1419; HCC 1419, 1st week (LC50), 12 h): 2.0317
- The absorbance, Mean value (HCC 1419; [1]): 2.8401
- The absorbance, group - Blank (HCC 1419; [1]): 2.5035
- The absorbance (HCC 1419; [1]): 2.9427 and 2.856 and 2.7216
- The absorbance, Mean value (HCC 1419; [2]): 3.4706
- The absorbance, group - Blank (HCC 1419; [2]): 3.1340
- The absorbance (HCC 1419; [2]): 3.7945 and 2.9086 and 3.7087
- The absorbance, Mean value (HCC 1419; HCC 1419, 1st week (LC50), 4 d): 2.6666
- The absorbance (HCC 1419; HCC 1419, 1st week (LC50), 4 d): 2.6667 and 2.7014 and 2.6316
- The absorbance, Mean value (HCC 1419; HCC 1419, 1st week (LC50), 7 d): 2.5386
- The absorbance (HCC 1419; HCC 1419, 1st week (LC50), 7 d): 2.6877 and 2.5421
- The absorbance, Mean value (HCC 1419; [3]): 2.4911
- The absorbance (HCC 1419; [3]): 2.7348
- The absorbance (HCC 1419; HCC 1419, 2nd week (recovery), 24 h): 2.4388
- The absorbance, Mean value (HCC 1419; [4]): 2.6525
- The absorbance, group - Blank (HCC 1419; [4]): 2.4436
- The absorbance (HCC 1419; [4]): 2.6611 and 2.6375 and 2.6588
- The absorbance, Mean value (HCC 1419; [5]): 2.6058
- The absorbance (HCC 1419; [5]): 2.7024 and 2.5033 and 2.6116
- The viability (HCC 1419; HCC 1419, XTT, 1/100 of %, 2nd week (recovery), 48 h): 0.8937
- The viability (HCC 1419; human, 12 h, 220 nM): 0.7658
- The viability (HCC 1419; human, 48 h, 220 nM): 1.1461
- The viability (HCC 1419; human, 7 d, 220 nM): 0.9883
- process of cell death (microscopy) (Saos-2): cell membranes were ruptured by toxicity of Taxol, and then nuclei of cells changed into black
- cell counts (Saos-2; 1st week (LC50), 0 h): 2143 and 2221 and 2135
- cell counts, Mean value (Saos-2; 1st week (LC50), 0 h): 2166
- cell counts (Saos-2; 1st week (LC50), 12 h): 1756 and 1790 and 1705
- cell counts, Mean value (Saos-2; 1st week (LC50), 12 h): 1750
- cell counts (Saos-2; 1st week (LC50), 24 h): 1529 and 1376 and 1452
- cell counts, Mean value (Saos-2; 1st week (LC50), 24 h): 1452
- cell counts (Saos-2; 1st week (LC50), 48 h): 857 and 822 and 776
- cell counts, Mean value (Saos-2; 1st week (LC50), 48 h): 818
- cell counts, Mean value (Saos-2; 1st week (LC50), 4 d): 420
- cell counts, Mean value (Saos-2; 2nd week (recovery), 0 h): 609
- cell counts, Mean value (Saos-2; 2nd week (recovery), 24 h): 183
- cell counts (Saos-2; 2nd week (recovery), 48 h): 312 and 249 and 165
- cell counts, Mean value (Saos-2; 2nd week (recovery), 48 h): 242
- cell counts (Saos-2; 2nd week (recovery), 4 d): 416 and 589 and 602
- cell counts, Mean value (Saos-2; 2nd week (recovery), 4 d): 536
- cell counts, Mean value (Saos-2; 2nd week (recovery), 7 d): 635
- process of cell death (microscopy) (AsPc): cell membranes were ruptured by toxicity of Taxol, and then nuclei of cells changed into black
- cell counts (AsPc; 1st week (LC50), 0 h): 2340 and 2039 and 2111
- cell counts, Mean value (AsPc; 1st week (LC50), 0 h): 2163
- cell counts (AsPc; 1st week (LC50), 12 h): 2833 and 2279 and 2550
- cell counts, Mean value (AsPc; 1st week (LC50), 12 h): 2554
- cell counts (AsPc; 1st week (LC50), 24 h): 2336 and 2161 and 2310
- cell counts, Mean value (AsPc; 1st week (LC50), 24 h): 2269
- cell counts (AsPc; 1st week (LC50), 48 h): 2810 and 2130 and 1800
- cell counts (AsPc; 1st week (LC50), 4 d): 2007 and 2100
- cell counts, Mean value (AsPc; 1st week (LC50), 4 d): 2042
- cell counts (AsPc; 1st week (LC50), 7 d): 2174 and 1902
- cell counts, Mean value (AsPc; 1st week (LC50), 7 d): 1823
- cell counts (AsPc; 2nd week (recovery), 0 h): 1213 and 1770
- cell counts (AsPc; 2nd week (recovery), 48 h): 1210 and 1202
- cell counts, Mean value (AsPc; 2nd week (recovery), 4 d): 631
- cell counts (AsPc; 2nd week (recovery), 7 d): 73 and 85
- cell counts, Mean value (AsPc; 2nd week (recovery), 7 d): 86
- cell counts (MDA-MB-231; 1st week (LC50), 0 h): 47000 and 42000 and 53000
- cell counts, Mean value (MDA-MB-231; 1st week (LC50), 0 h): 47333
- cell counts (MDA-MB-231; 1st week (LC50), 24 h): 32000 and 39000 and 22000
- cell counts, Mean value (MDA-MB-231; 1st week (LC50), 24 h): 31000
- cell counts (MDA-MB-231; 1st week (LC50), 48 h): 13000 and 16000 and 23000
- cell counts, Mean value (MDA-MB-231; 1st week (LC50), 48 h): 17333
- cell counts (MDA-MB-231; 1st week (LC50), 4 d): 19500 and 24000 and 26500
- cell counts, Mean value (MDA-MB-231; 1st week (LC50), 4 d): 23333
- cell counts, Mean value (MDA-MB-231; 1st week (LC50), 7 d): 9667
- growth of the cell population (MDA-MB-231; 2nd week (recovery)): begins to grow and shows the sign of recovering
- cell counts (MDA-MB-231; 2nd week (recovery), 0 h): 12500 and 17500 and 22000
- cell counts, Mean value (MDA-MB-231; 2nd week (recovery), 0 h): 17333
- cell counts (MDA-MB-231; 2nd week (recovery), 24 h): 16000 and 32000 and 24000
- cell counts, Mean value (MDA-MB-231; 2nd week (recovery), 24 h): 24000
- cell counts, Mean value (MDA-MB-231; 2nd week (recovery), 48 h): 24500
- cell counts, Mean value (MDA-MB-231; 2nd week (recovery), 4 d): 22167
- cell counts, Mean value (MDA-MB-231; 2nd week (recovery), 7 d): 32000
- appearance of normal cells (microscopy) (BJ): fully destroyed
- proliferation of normal cells (BJ): decreased due to stress by toxicity of Taxol
- cell counts, Mean value (BJ; 1st week (LC50), 0 h): 16333
- cell counts (BJ; 1st week (LC50), 0 h): 14000 and 17000 and 18000
- cell counts, Mean value (BJ; 1st week (LC50), 12 h): 11000
- cell counts (BJ; 1st week (LC50), 12 h): 12000 and 9000
- cell counts, Mean value (BJ; 1st week (LC50), 24 h): 12667
- cell counts (BJ; 1st week (LC50), 24 h): 10000 and 17000 and 11000
- cell counts, Mean value (BJ; 1st week (LC50), 48 h): 11667
- cell counts (BJ; 1st week (LC50), 48 h): 14000 and 10000 and 11000
- cell counts, Mean value (BJ; 1st week (LC50), 4 d): 6333
- cell counts (BJ; 1st week (LC50), 4 d): 9000 and 5000
- cell counts, Mean value (BJ; 1st week (LC50), 7 d): 6667
- cell counts, Mean value (BJ; 2nd week (recovery), 0 h): 19
- cell counts, Mean value (BJ; 2nd week (recovery), 24 h): 8
- cell counts (BJ; 2nd week (recovery), 24 h): 7 and 9
- cell counts, Mean value (BJ; 2nd week (recovery), 48 h): 13
- cell counts (BJ; 2nd week (recovery), 48 h): 8 and 14 and 16
- cell counts, Mean value (BJ; 2nd week (recovery), 4 d): 11
- cell counts, Mean value (BJ; 2nd week (recovery), 7 d): 28
- cell counts (BJ; 2nd week (recovery), 7 d): 35 and 29 and 19
